In patent US9593149B2, “Amylin and calcitonin receptor agonist” (Novo Nordisk A/S, priority 2014, dated 2017):
Numbered stars: 1 amine (or outer) side, 2 acyl side, 3 side chain; on linkers, the order of the positions; unused ones are H or OH. Side chains are listed from the residue outwards. Peptide text beside a SMILES is read from it. * marks the point of attachment. C20 diacid = O=C(O)CCCCCCCCCCCCCCCCCCC(=O)*; C18 diacid = O=C(O)CCCCCCCCCCCCCCCCC(=O)*; γGlu = O=C(O)[C@H](CCC(=O)[*:2])N[*:1]

Legend:
[1] = target: T1, human calcitonin (a) receptor, BHK570 cells (Homo sapiens, UniProt P30988); experiment: Assay (II)b functional CRE-luciferase assay without albumin, human calcitonin receptor; format: cell-based; settings: Tested without HSA; read-out: hCTR funct. EC50
T1 construct: host or cells: BHK570
T1 sequence (P30988 25-474): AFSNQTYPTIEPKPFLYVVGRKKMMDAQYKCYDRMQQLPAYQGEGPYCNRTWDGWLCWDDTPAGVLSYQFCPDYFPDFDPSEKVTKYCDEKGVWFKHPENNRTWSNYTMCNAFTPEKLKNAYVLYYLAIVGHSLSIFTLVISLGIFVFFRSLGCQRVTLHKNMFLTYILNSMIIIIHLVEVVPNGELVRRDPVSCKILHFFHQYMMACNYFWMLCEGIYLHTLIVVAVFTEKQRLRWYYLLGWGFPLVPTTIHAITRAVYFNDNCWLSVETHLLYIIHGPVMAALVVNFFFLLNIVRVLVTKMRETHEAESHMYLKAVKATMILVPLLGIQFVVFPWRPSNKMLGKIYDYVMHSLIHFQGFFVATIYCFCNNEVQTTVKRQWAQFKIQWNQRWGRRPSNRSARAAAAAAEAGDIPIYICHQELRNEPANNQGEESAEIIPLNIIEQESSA
Procedure, shortened: (§1)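 BHK570 cells stably expressing human calcitonin receptor with CRE-luciferase reporter, plus RAMP-3 for the amylin 3(a) line. Cells stimulated 3 hours at 37 °C in albumin-free assay medium (0.1% ovalbumin, 10 mM Hepes pH 7.4); cAMP-driven luciferase read by luminescence.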

[2] = target: T2, human calcitonin receptor (Homo sapiens, UniProt P30988); experiment: Assay (VII) binding to the human calcitonin receptor (membrane, SPA); settings: membranes, 125I-Calcitonin; read-out: hCT-R binding IC50
T2 construct: expressed in transfected cells; host or cells: BHK tk'ts 13
T2 sequence (P30988 25-474): T1 sequence (P30988 25-474)
Protocol: Assay (VII)—Determination of Binding to the Human Calcitonin Receptor (Membrane)
The binding assay was performed using scintillation proximity assay (SPA) beads (RPNQ0001) from PerkinElmer® and cell membranes prepared from a BHK tk'ts 13 cell line was stably transfected with the human calcitonin receptor and a CRE-responsive luciferase reporter gene. Membranes were prepared in the following way; the cells were rinsed with PBS and incubated with Versene for approximately 5 min before harvesting. The cells were flushed with PBS and the cell-suspension was centrifuged for 5 min at 1000 rpm. Cells were homogenized in a buffer containing 20 mM Na-HEPES and 10 mM EDTA (pH 7.4) and centrifuged at 20.000 rpm for 15 min. The resulting pellet was resuspended, homogenized and centrifuged (20.000 rpm, 15 min) in a buffer containing 20 mM Na-HEPES and 0.1 mM EDTA (pH 7.4, buffer 2). The resulting pellet was resuspended in buffer 2 and protein concentration was tested (BCA protein Assay, Pierce). The homogenate was kept cold during the whole procedure. The membranes were kept at −80° C. until use. Assay was performed in a 384 well Optiplate (PerkinElmer®) in a total volume of 40 ul. Membranes were mixed with SPA beads. Final concentration of membranes 35 ng/μL final and Final concentration of SPA beads was 0.05 mg/well. Test-compounds were dissolved in DMSO and further diluted in assay buffer (50 mM Hepes, pH 7.4, 1 mM CaCl2, 5 mM MgCl2, 0.1% OA and 0.02% Tween20). Radioligand ^125I-Calcitonin was dissolved in assay buffer and added to the Optiplate at a final concentration of 75 pM/well (approx. 30.000 cpm/10 ul). The final mixture was incubated for 120 min with shaking at 400 rpm at 25° C. prior to centrifugation (1500 rpm, 10 min). Samples were analyzed on TopCounter™ (Packard). The IC50 was calculated using (one site binding competition analysis) GraphPad Prism5 as a measure of receptor affinity.

[3] = target: T3, human amylin 3(a) receptor (human calcitonin receptor + RAMP-3), BHK570 cells (Homo sapiens, UniProt O60896+P30988); experiment: Assay (II)b functional CRE-luciferase assay without albumin, human amylin receptor; format: cell-based; settings: Tested without HSA; read-out: hAmylin-R funct. EC50
T3 construct: host or cells: BHK570
Procedure, shortened: as §1

[4] = target: T4, human amylin receptor (human calcitonin receptor + human RAMP3), BHK tk'ts 13 cells (Homo sapiens, UniProt O60896+P30988); experiment: Assay (Va) binding to the human amylin receptor (whole cell); settings: read-out: hAmylin-R binding IC50
T4 construct: expressed in transfected cells; host or cells: BHK tk'ts 13
Protocol: The day before the assay the cells were Seeded into Poly-D-Lysin coated 384W Opaque White, BD BioCoat plates (10000 cells/well) and Incubated overnight at 37° C., 5% CO2, 95% humidity.

T4 sequence (O60896 24-148, one chain of several): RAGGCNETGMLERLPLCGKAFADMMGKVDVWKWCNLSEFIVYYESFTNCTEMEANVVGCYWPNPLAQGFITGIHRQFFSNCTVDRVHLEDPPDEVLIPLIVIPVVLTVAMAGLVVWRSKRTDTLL
T3 sequence (O60896 24-148, one chain of several): as above

Row | EC50 [1] | IC50 [2] | EC50 [3] | IC50 [4] | Compound
1 | 0.022 nM | 0.108 nM | 0.02 nM | 1.23 nM | CC(C)C[C@H](NC(=O)[C@H](C)NC(=O)[C@H](C)NC(=O)[C@@H](NC(=O)[C@H](CO)NC(=O)[C@H](CC(C)C)NC(=O)[C@H](CCC(=O)O)NC(=O)[C@H](CO)NC(=O)[C@H](C)NC(=O)[C@H](C)NC(=O)CC[C@H](NC(=O)CCCCCCCCCCCCCCCCCCC(=O)O)C(=O)O)[C@@H](C)O)C(=O)NCC(=O)N[C@@H](CCCNC(=N)N)C(=O)N[C@@H](CC(C)C)C(=O)N[C@@H](CO)C(=O)N[C@@H](C)C(=O)N[C@@H](CCC(=O)O)C(=O)N[C@@H](CC(C)C)C(=O)N[C@@H](Cc1c[nH]cn1)C(=O)N[C@@H](CCC(=O)O)C(=O)N[C@@H](CC(C)C)C(=O)N[C@@H](C)C(=O)N[C@H](C(=O)N[C@@H](Cc1ccc(O)cc1)C(=O)N1CCC[C@H]1C(=O)N[C@@H](CCCNC(=N)N)C(=O)N[C@H](C(=O)N[C@@H](CCC(=O)O)C(=O)N[C@H](C(=O)NCC(=O)N[C@@H](CO)C(=O)NCC(=O)N[C@@H](CO)C(=O)N1CCC[C@H]1C(N)=O)[C@@H](C)O)[C@@H](C)O)[C@@H](C)O [compound 57, [N-terminal(C20 diacid-gGlu), 1A, 23Y, 30S, 31G]mimylin] ({C20 diacid-γGlu}-AASELSTAALGRLSAELHELATYPRTETGSGSP-NH2)
2 | 0.027 nM | 0.01 nM | 0.036 nM |  | CC(=O)N[C@@H](C)C(=O)N[C@@H](CO)C(=O)N[C@@H](CCCCNC(=O)CC[C@H](NC(=O)CCCCCCCCCCCCCCCCCCC(=O)O)C(=O)O)C(=O)N[C@@H](CC(C)C)C(=O)N[C@@H](CO)C(=O)N[C@H](C(=O)N[C@@H](C)C(=O)N[C@@H](C)C(=O)N[C@@H](CC(C)C)C(=O)NCC(=O)N[C@@H](CCCNC(=N)N)C(=O)N[C@@H](CC(C)C)C(=O)N[C@@H](CO)C(=O)N[C@@H](C)C(=O)N[C@@H](CCC(=O)O)C(=O)N[C@@H](CC(C)C)C(=O)N[C@@H](Cc1c[nH]cn1)C(=O)N[C@@H](CCC(=O)O)C(=O)N[C@@H](CC(C)C)C(=O)N[C@@H](C)C(=O)N[C@H](C(=O)N[C@@H](CC(C)C)C(=O)N1CCC[C@H]1C(=O)N[C@@H](CCCNC(=N)N)C(=O)N[C@H](C(=O)N[C@@H](CCC(=O)O)C(=O)N[C@H](C(=O)NCC(=O)N[C@@H](CO)C(=O)NCC(=O)N[C@@H](CO)C(=O)N1CCC[C@H]1C(N)=O)[C@@H](C)O)[C@@H](C)O)[C@@H](C)O)[C@@H](C)O [compound 68, [N-terminal(acetyl), des1, 4K(C20 diacid-gGlu), 30S, 31G]mimylin] (Ac-ASK([γGlu-C20 diacid])LSTAALGRLSAELHELATLPRTETGSGSP-NH2)
3 | 0.045 nM | 0.222 nM |  | 22.9 nM | CC(C)C[C@H](NC(=O)[C@H](CCC(=O)O)NC(=O)[C@H](C)NC(=O)[C@@H](NC(=O)[C@H](CC(C)C)NC(=O)[C@H](CCCNC(=N)N)NC(=O)CNC(=O)[C@H](CC(C)C)NC(=O)[C@@H](NC(=O)[C@H](C)NC(=O)[C@@H](NC(=O)[C@@H](NC(=O)[C@H](CC(C)C)NC(=O)[C@H](CCC(=O)O)NC(=O)[C@H](CO)NC(=O)[C@H](C)NC(=O)CC[C@H](NC(=O)CCCCCCCCCCCCCCCCC(=O)O)C(=O)O)[C@@H](C)O)[C@@H](C)O)C(C)C)[C@@H](C)O)C(=O)N[C@@H](Cc1c[nH]cn1)C(=O)N[C@@H](CCC(=O)O)C(=O)N[C@@H](CC(C)C)C(=O)N[C@@H](CCC(=O)O)C(=O)N[C@H](C(=O)N[C@@H](CC(C)C)C(=O)N1CCC[C@H]1C(=O)N[C@@H](CCCNC(=N)N)C(=O)N[C@H](C(=O)N[C@@H](CCC(=O)O)C(=O)N[C@H](C(=O)NCC(=O)N[C@H](C(=O)NCC(=O)N[C@H](C(=O)N1CCC[C@H]1C(N)=O)[C@@H](C)O)[C@@H](C)O)[C@@H](C)O)[C@@H](C)O)[C@@H](C)O [compound 105, [N-terminal(C18 diacid-gGlu), des1, 6T, 9V, 14T, 21E, 30T, 31G, 32T]mimylin] ({C18 diacid-γGlu}-ASELTTAVLGRLTAELHELETLPRTETGTGTP-NH2)
4 |  | 0.085 nM |  | 0.278 nM | CC(C)C[C@H](NC(=O)[C@H](CCCNC(=N)N)NC(=O)CNC(=O)[C@H](CC(C)C)NC(=O)[C@@H](NC(=O)[C@H](C)NC(=O)[C@@H](NC(=O)[C@H](CO)NC(=O)[C@H](CC(C)C)NC(=O)[C@H](CCC(=O)O)NC(=O)[C@H](CO)NC(=O)[C@H](C)NC(=O)CC[C@H](NC(=O)CCCCCCCCCCCCCCCCCCC(=O)O)C(=O)O)[C@@H](C)O)C(C)C)C(=O)N[C@@H](CO)C(=O)N[C@@H](CCC(N)=O)C(=O)N[C@@H](CCC(=O)O)C(=O)N[C@@H](CC(C)C)C(=O)N[C@@H](Cc1c[nH]cn1)C(=O)N[C@@H](CCC(=O)O)C(=O)N[C@@H](CC(C)C)C(=O)N[C@@H](CCC(N)=O)C(=O)N[C@H](C(=O)N[C@@H](Cc1ccc(O)cc1)C(=O)N1CCC[C@H]1C(=O)N[C@@H](CCCNC(=N)N)C(=O)N[C@H](C(=O)N[C@@H](CCC(=O)O)C(=O)N[C@H](C(=O)NCC(=O)N[C@@H](CO)C(=O)NCC(=O)N[C@H](C(=O)N[C@@H](Cc1ccc(O)cc1)C(N)=O)[C@@H](C)O)[C@@H](C)O)[C@@H](C)O)[C@@H](C)O [compound 114, [N-terminal(C20 diacid-gGlu), des1, 9V, 15Q, 21Q, 23Y, 30S, 31G, 32T, 33Y]mimylin]
